Literature values in US9370164B2, “Breeding, production, processing and use of specialty Cannabis” (Biotech Institute LLC, priority 2013, dated 2016).
Like-named read-outs stand apart in the source and are kept apart here.

How the values were obtained:
[1] = for Proposed mechanism, Analgesic: post-operative pain
[2] = for Pharmacological Action: Anti-epileptic: indication: Epilepsy; for Pharmacological Action: Anti-emetic: indication: CIE; for Pharmacological Action: Antidepressant: indication: Depression; for Pharmacological Action: Intestinal Anti-prokinetic: indication: Diarrhea; for Pharmacological Action: Vasorelaxant: indication: Glaucoma; for Pharmacological Action: Sedative: indication: Sleep disorders; for Pharmacological Action: Immunosuppressive: indications: Allergies, RA, IBS; for Pharmacological Action: Immunosuppressive / Pharmacological Action: Anti-inflammatory / Pharmacological Action: Neuroprotective: MS; for Pharmacological Action: Analgesic / Pharmacological Action: Anti-spasmodic: indications: MS; for Pharmacological Action: Analgesic: Post-operative pain, Migraine, Neuropathic pain, Sciatica; for Pharmacological Action: Anti-spasmodic: Spinal cord injury, Cerebral palsy; for Pharmacological Action: Anti-inflammatory: indications: Pain, Chron's, Arthritis; for Pharmacological Action: Anxiolytic: indications: Panic Disorder, Social Anxiety Disorder, Generalized Anxiety Disorder, PTSD; for Pharmacological Action: Neuroprotective: indications: Parkinson's, Alzheimer's, Stroke; for Pharmacological Action: Muscle relaxant: indication: MS; for Pharmacological Action: Bronchodialator: indications: Asthma, Sleep-related breathing disorders

CCCc1cc(O)c2c(c1)OC(C)(C)[C@@H]1CCC(C)=C[C@@H]21 [THCV]
Proposed mechanism, Anti-epileptic [1]: (−)CB1 | Pharmacological Action: Anti-epileptic [2]: ✓

C=C(C)[C@@H]1CCC(C)=C[C@H]1c1c(O)cc(CCCCC)cc1O [CBD]
Proposed mechanism, Analgesic [1]: (+)TRPA1 | Proposed mechanism, Anti-epileptic [1]: (+)5HT1A | Proposed mechanism, Anti-psychotic ([1]; Anti-psychotic): (+)TRPV1 | Proposed mechanism, Anxiolytic ([1]; panic disorder): (+)5HT1A | Proposed mechanism, Anxiolytic ([1]; social anxiety disorder): (+)CB1 | Proposed mechanism, Intestinal Anti-prokinetic ([1]; Intestinal Anti-prokinetic): (−)Ca1 | Proposed mechanism, Vasorelaxant [1]: (+)PPARg | Pharmacological Action: Anti-emetic [2]: ✓ | Pharmacological Action: Antidepressant [2]: ✓ | Pharmacological Action: Intestinal Anti-prokinetic [2]: ✓ | Pharmacological Action: Anti-epileptic [2]: ✓ | Pharmacological Action: Vasorelaxant [2]: ✓ | Pharmacological Action: Sedative [2]: ✓ | Pharmacological Action: Immunosuppressive [2]: ✓ | Pharmacological Action: Analgesic [2]: ✓ | Pharmacological Action: Anti-spasmodic [2]: ✓ | Pharmacological Action: Anti-inflammatory [2]: ✓ | Pharmacological Action: Anxiolytic [2]: ✓ | Pharmacological Action: Neuroprotective [2]: ✓

CCCCCc1cc(O)c(C/C=C(\C)CCC=C(C)C)c(O)c1 [CBG]
Proposed mechanism, Analgesic [1]: (+)TRPA1 | Proposed mechanism, Anti-proliferative [1]: (−)TRPM8 | Proposed mechanism, Antidepressant ([1]; Antidepressant): (−)5HT1A | Pharmacological Action: Antidepressant [2]: ✓ | Pharmacological Action: Anti-epileptic [2]: ✓ | Pharmacological Action: Muscle relaxant [2]: ✓ | Pharmacological Action: Analgesic [2]: ✓ | Pharmacological Action: Anti-spasmodic [2]: ✓ | Pharmacological Action: Anxiolytic [2]: ✓

C=CC(C)(O)CCC=C(C)C (stereo not drawn) [Linalool]
Proposed mechanism, Anti-epileptic [1]: anti-Glu | Pharmacological Action: Anti-epileptic [2]: ✓ | Pharmacological Action: Sedative [2]: ✓ | Pharmacological Action: Analgesic [2]: ✓ | Pharmacological Action: Anxiolytic [2]: ✓

C=C1CC/C=C(\C)CC[C@@H]2[C@@H]1CC2(C)C [b-caryophyl.]
Proposed mechanism, Anti-inflammatory [1]: PGE1 | Pharmacological Action: Anti-inflammatory [2]: ✓

CCCCCc1cc(O)c2c(c1)OC(C)(CCC=C(C)C)C=C2 (stereo not drawn) [CBC]
Pharmacological Action: Analgesic [2]: ✓ | Pharmacological Action: Anti-inflammatory [2]: ✓

CCCCCc1cc(O)c2c(c1)OC(C)(C)[C@@H]1CCC(C)=C[C@@H]21 [THC]
Proposed mechanism, Anti-inflammatory [1]: (+)PPARg | Proposed mechanism, Anti-proliferative [1]: (−)TRPM8 | Proposed mechanism, Appetite Stimulant ([1]; Appetite Stimulant): (+)PPARg | Proposed mechanism, Vasorelaxant [1]: (+)PPARg | Pharmacological Action: Anti-emetic [2]: ✓ | Pharmacological Action: Antidepressant [2]: ✓ | Pharmacological Action: Intestinal Anti-prokinetic [2]: ✓ | Pharmacological Action: Anti-epileptic [2]: ✓ | Pharmacological Action: Vasorelaxant [2]: ✓ | Pharmacological Action: Muscle relaxant [2]: ✓ | Pharmacological Action: Sedative [2]: ✓ | Pharmacological Action: Immunosuppressive [2]: ✓ | Pharmacological Action: Appetite Stimulant ([2]; indications: Anorexia, Cachexia, AIDS wasting): ✓ | Pharmacological Action: Bronchodialator [2]: ✓ | Pharmacological Action: Analgesic [2]: ✓ | Pharmacological Action: Anti-spasmodic [2]: ✓ | Pharmacological Action: Anti-inflammatory [2]: ✓ | Pharmacological Action: Anxiolytic [2]: ✓ | Pharmacological Action: Neuroprotective [2]: ✓

CC1=CCC2CC1C2(C)C (stereo not drawn) [a-pinene]
Proposed mechanism, Anti-inflammatory [1]: PGE1 | Pharmacological Action: Bronchodialator [2]: ✓ | Pharmacological Action: Anti-inflammatory [2]: ✓

CCCCCc1cc(O)c2c(c1)OC(C)(C)c1ccc(C)cc1-2 [CBN]
Pharmacological Action: Sedative [2]: ✓ | Pharmacological Action: Analgesic [2]: ✓

C=CC(=C)CCC=C(C)C [b-myrcene]
Proposed mechanism, Anti-inflammatory [1]: PGE2 | Pharmacological Action: Sedative [2]: ✓ | Pharmacological Action: Analgesic [2]: ✓ | Pharmacological Action: Anti-inflammatory [2]: ✓

C=C(C)[C@H]1CC=C(C)CC1 [Limonene]
Pharmacological Action: Antidepressant [2]: ✓ | Pharmacological Action: Anxiolytic [2]: ✓
